Assay results taken from patent US10966426B2, “Herbicidal compositions comprising phenylpyrimidines” (BASF SE, priority 2016, dated 2021).
Read-outs that look alike come from different tables or passages of the source.

Columns and labels:
Assay type in all cases: in vivo
Stellaria media [1] = test: greenhouse pre-emergence treatment, STEME; conditions: chlorotoluron solo 250 gai/ha, 20 DAT
Summary of the method: (§1)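 Damage rated on 0 to 100 scale (0 = normal growth, 100 = no emergence or total above-ground kill) after 2-4 weeks at species-dependent 10-25° C or 20-35° C. Seeds sown per species in loamy sand, ~3.0% humus, treated right after sowing with aqueous spray of single actives or 10% emulsion-concentrate mixtures, then hooded; additive expectation by Colby.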

Bromus sterilis = test: greenhouse pre-emergence treatment, BROST; conditions: Bromus sterilis, 480 h, BROST, 20 DAT
Summary of the method: as §1

Papaver rhoeas = test: greenhouse pre-emergence treatment, PAPRH; conditions: 20 DAT
Summary of the method: as §1

Galium aparine = test: greenhouse post-emergence treatment, GALAP; conditions: Galium aparine, 480 h, GALAP, 20 DAT
Summary of the method: (§2)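 Foliar application to greenhouse-grown plants 3–15 cm tall in humus-containing loamy sand; response assessed on a 0–100 scale after 2–4 weeks, with Colby's E=X+Y−(X·Y/100) as the additive expectation.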

Digitaria sanguinalis [2] = test: greenhouse pre-emergence treatment, DIGSA; conditions: Digitaria sanguinalis, 480 h, DIGSA, 20 DAT
Summary of the method: as §1

Lolium multiflorum = test: greenhouse post-emergence treatment, LOLMU; conditions: Lolium multiflorum, LOLMU
Summary of the method: (§3)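 Visual damage score 0–100 (0 = normal growth; 100 = no emergence/above-ground parts destroyed), read 2–4 wk post-treatment. Loamy sand, ~3.0% humus; seedlings grown in place or transplanted days before spraying; water as solvent; 10-25° C. or 20-35° C. per species. Combination expectations by Colby: E=X+Y−(X·Y/100).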

Echinocloa crus-galli = test: greenhouse post-emergence treatment, ECHCG; conditions: ECHCG, 20 DAT
Summary of the method: as §2

Brachiaria decumbens = test: greenhouse pre-emergence treatment, BRADC; conditions: Urochloa decumbens, 480 h, BRADC, 20 DAT
Summary of the method: as §1

Setaria viridis = test: greenhouse pre-emergence treatment, SETVI; conditions: 20 DAT, SETVI
Summary of the method: as §1

Digitaria sanguinalis [3] = test: greenhouse post-emergence treatment, DIGSA; conditions: Digitaria sanguinalis, DIGSA
Summary of the method: as §3

Stellaria media [4] = test: greenhouse post-emergence treatment, STEME; conditions: Stellaria media
Summary of the method: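 Mixtures formulated as 10% by weight emulsion concentrates, applied in water post-emergence to plants of 3–15 cm. Cool-season species held at 10-25° C., warm-season at 20-35° C.; rating 0 (no damage) to 100 (destruction).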

Helianthus annuus = test: greenhouse post-emergence treatment, HELAN; conditions: HELAN; for % activity: cinmethylin solo (EC 750 g/l), 21 DAT
Protocol: The culture containers used were plastic pots containing loamy sand with approximately 3.0% of humus as substrate. The seeds of the test plants were sown separately for each species.
For the post-emergence treatment, the test plants were grown to a plant height of from 3 to 15 cm, depending on the plant habit, and only then treated with the active compounds which had been suspended or emulsified in water. To this end, the test plants were either sown directly, and grown in the same containers, or they were first grown separately as seedlings and transplanted into the test containers a few days prior to treatment.
Depending on the species, the plants were kept at 10-25° C. and 20-35° C., respectively.
The test period extended over 2 to 4 weeks. During this time, the plants were tended and their response to the individual treatments was evaluated.
Evaluation was carried out using a scale from 0 to 100. 100 means no emergence of the plants, or complete destruction of at least the above-ground parts, and 0 means no damage or normal course of growth. A good herbicidal activity is given at values of at least 70, and very good herbicidal activity is given at values of at least 85.
The respective stated components A and B, and if appropriate, C were formulated as a 10% by weight strength emulsion concentrate and, with addition of the amount of solvent system, introduced into the spray liquor used for applying the active compound. In the examples, the solvent used was water.
In the examples below, using the method of S. R. Colby (1967) “Calculating synergistic and antagonistic responses of herbicide combinations”, Weeds 15, p. 22ff., the value E, which is expected if the activity of the individual active compounds is only additive, was calculated. E=X+Y−(X·Y/100) where X=effect in percent using herbicide A at an application rate a; • Y=effect in percent using herbicide B at application rate b; • E=expected effect (in %) of herbicide A+herbicide B at application rates a+b.

Polygonum aviculare = test: greenhouse post-emergence treatment, POLAV; conditions: Polygonum aviculare, 480 h, 20 DAT, POLAV
Summary of the method: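 Greenhouse; post-emergence spray at 3–15 cm; aqueous EC formulation; 2–4 weeks; 0–100 visual score.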

[5] = 504 h, 21 DAT, solo cinmethylin (EC 750 g/l) 62.5 gai/ha, read-out: % activity
[6] = 504 h, 21 DAT, solo cinmethylin (EC 750 g/l) 125 gai/ha, read-out: % activity
[7] = 480 h, solo, WG 70%, 17.5 gai/ha, 20 DAT
[8] = 480 h, solo, WG 70%, 35 gai/ha, 20 DAT

## Cc1ccc(NC(=O)N(C)C)cc1Cl [chlorotoluron]
Stellaria media [1]
  % activity: 65%
Bromus sterilis; chlorotoluron solo 62.5 gai/ha
  pest or weed control at 62.5 g/ha: 0%
Bromus sterilis; chlorotoluron solo 250 gai/ha
  pest or weed control at 250 g/ha: 0%
Bromus sterilis; chlorotoluron solo 500 gai/ha
  pest or weed control at 500 g/ha: 0%
Papaver rhoeas; chlorotoluron solo 62.5 gai/ha
  % activity: 0%
Papaver rhoeas; chlorotoluron solo 500 gai/ha
  % activity: 90%
Galium aparine; chlorotoluron solo 250 gai/ha
  pest or weed control at 250 g/ha: 65%
Galium aparine; chlorotoluron solo 500 gai/ha
  pest or weed control at 500 g/ha: 70%
Digitaria sanguinalis [2]; chlorotoluron solo 125 gai/ha
  pest or weed control at 125 g/ha: 0%
Digitaria sanguinalis [2]; chlorotoluron solo 500 gai/ha
  pest or weed control at 500 g/ha: 65%
Lolium multiflorum; 480 h, chlorotoluron solo 500 gai/ha, 20 DAT
  pest or weed control at 500 g/ha: 80%
Echinocloa crus-galli; chlorotoluron solo 500 gai/ha
  % activity: 65%
Brachiaria decumbens; chlorotoluron solo 500 gai/ha
  pest or weed control at 500 g/ha: 0%

## Cc1ccccc1CO[C@@H]1C[C@@]2(C(C)C)CC[C@]1(C)O2 (racemic) [cinmethylin]
Bromus sterilis; 62.5 gai/ha (EC 750 g/l), Table X1, read-out: % activity, solo application
  inhibition at 62.5 g/ha: 55%
Bromus sterilis; 250 gai/ha (EC 750 g/l), Table X1, read-out: % activity, solo application
  inhibition at 250 g/ha: 75%
Setaria viridis; Setaria viridis, 480 h, 31.25 gai/ha (EC 750 g/l), Table X1, read-out: % activity, solo application
  inhibition at 31.25 g/ha: 85%
Digitaria sanguinalis [3]; [5]
  pest or weed control at 62.5 g/ha: 0%
Digitaria sanguinalis [3]; [6]
  pest or weed control at 125 g/ha: 15%
Digitaria sanguinalis [3]; 504 h, 21 DAT, solo cinmethylin (EC 750 g/l) 250 gai/ha, read-out: % activity
  pest or weed control at 250 g/ha: 20%
Stellaria media [4]; 504 h, read-out: % activity
  pest or weed control at 62.5 g/ha: 0%
  pest or weed control at 125 g/ha: 10%
Helianthus annuus; 62.5 gai/ha
  % activity: 30%
Helianthus annuus; 500 gai/ha
  % activity: 60%
Lolium multiflorum; [5]
  pest or weed control at 62.5 g/ha: 0%
Lolium multiflorum; [6]
  pest or weed control at 125 g/ha: 30%

## CCCCCCCCSC(=O)Oc1cc(Cl)nnc1-c1ccccc1 [pyridate]
Polygonum aviculare; pyridate solo 112.5 gai/ha
  inhibition at 112.5 g/ha: 0%
Polygonum aviculare; pyridate solo 225 gai/ha
  inhibition at 225 g/ha: 20%
Polygonum aviculare; pyridate solo 450 gai/ha
  inhibition at 450 g/ha: 20%
Polygonum aviculare; pyridate solo 900 gai/ha
  inhibition at 900 g/ha: 30%
Galium aparine; solo pyridate (WP 45%) 112.5 gai/ha
  pest or weed control at 112.5 g/ha: 40%
Galium aparine; solo pyridate (WP 45%) 225 gai/ha
  pest or weed control at 225 g/ha: 85%
Galium aparine; pyridate solo 112.5 gai/ha
  inhibition at 112.5 g/ha: 40%
Galium aparine; pyridate solo 225 gai/ha
  inhibition at 225 g/ha: 85%
Stellaria media [4]; 480 h, pyridate solo 112.5 gai/ha, 20 DAT, STEME
  inhibition at 112.5 g/ha: 25%
Stellaria media [4]; 480 h, pyridate solo 450 gai/ha, 20 DAT, STEME
  inhibition at 450 g/ha: 55%
Stellaria media [4]; 480 h, pyridate solo 900 gai/ha, 20 DAT, STEME
  inhibition at 900 g/ha: 70%
Helianthus annuus; Helianthus annuus, 480 h, pyridate solo 225 gai/ha, 20 DAT
  inhibition at 225 g/ha: 60%
Helianthus annuus; Helianthus annuus, 480 h, pyridate solo 450 gai/ha, 20 DAT
  inhibition at 450 g/ha: 70%
Lolium multiflorum; 480 h, solo pyridate (WP 45%) 112.5 gai/ha, 20 DAT
  pest or weed control at 112.5 g/ha: 0%
Lolium multiflorum; 480 h, solo pyridate (WP 45%) 225 gai/ha, 20 DAT
  pest or weed control at 225 g/ha: 20%
Lolium multiflorum; 480 h, pyridate solo 112.5 gai/ha, 20 DAT
  inhibition at 112.5 g/ha: 0%
Lolium multiflorum; 480 h, pyridate solo 225 gai/ha, 20 DAT
  inhibition at 225 g/ha: 20%
Echinocloa crus-galli; Echinochloa crus-galli, 480 h, pyridate solo 225 gai/ha
  inhibition at 225 g/ha: 30%

## CSc1nnc(C(C)(C)C)c(=O)n1N [metribuzin]
Bromus sterilis; metribuzin WG 70% solo 31.25 gai/ha
  inhibition at 31.25 g/ha: 0%
Bromus sterilis; metribuzin WG 70% solo 62.5 gai/ha, read-out: % activity
  inhibition at 62.5 g/ha: 10%
Bromus sterilis; metribuzin WG 70% solo 250 gai/ha, read-out: % activity
  inhibition at 250 g/ha: 60%
Bromus sterilis; solo, WG 70%, 62.5 gai/ha
  pest or weed control at 62.5 g/ha: 10%
Papaver rhoeas; Papaver rhoeas, 480 h, metribuzin WG 70% solo 31.25 gai/ha
  inhibition at 31.25 g/ha: 80%
Papaver rhoeas; Papaver rhoeas, 480 h, metribuzin WG 70% solo 125 gai/ha
  inhibition at 125 g/ha: 98%
Papaver rhoeas; solo, WG 70%, 31.25 gai/ha
  % activity: 80%
Setaria viridis; solo, WG 70%, 31.25 gai/ha
  % activity: 0%
Galium aparine; metribuzin WG 70% solo 17.5 gai/ha
  inhibition at 17.5 g/ha: 0%
Galium aparine; metribuzin WG 70% solo 35 gai/ha
  inhibition at 35 g/ha: 0%
Galium aparine; metribuzin WG 70% solo 70 gai/ha
  inhibition at 70 g/ha: 0%
Galium aparine; metribuzin WG 70% solo 140 gai/ha
  inhibition at 140 g/ha: 0%
Galium aparine; solo, WG 70%, 35 gai/ha
  pest or weed control at 35 g/ha: 0%
Galium aparine; solo, WG 70%, 70 gai/ha
  pest or weed control at 70 g/ha: 0%
Galium aparine; solo, WG 70%, 140 gai/ha
  pest or weed control at 140 g/ha: 0%
Digitaria sanguinalis [3]; 480 h, 20 DAT, metribuzin WG 70% solo 17.5 gai/ha
  inhibition at 17.5 g/ha: 0%
Digitaria sanguinalis [3]; 480 h, 20 DAT, metribuzin WG 70% solo 35 gai/ha
  inhibition at 35 g/ha: 35%
Digitaria sanguinalis [3]; [7]
  pest or weed control at 17.5 g/ha: 0%
Digitaria sanguinalis [3]; [8]
  pest or weed control at 35 g/ha: 35%
Digitaria sanguinalis [3]; 480 h, solo, WG 70%, 140 gai/ha, 20 DAT
  pest or weed control at 140 g/ha: 85%
Stellaria media [4]; 480 h, 20 DAT, STEME, metribuzin WG 70% solo 35 gai/ha
  inhibition at 35 g/ha: 80%
Helianthus annuus; Helianthus annuus, 480 h, 20 DAT, metribuzin WG 70% solo 35 gai/ha
  inhibition at 35 g/ha: 70%
Digitaria sanguinalis [2]; solo, WG 70%, 31.25 gai/ha
  pest or weed control at 31.25 g/ha: 40%
Lolium multiflorum; [7]
  pest or weed control at 17.5 g/ha: 20%
Lolium multiflorum; [8]
  pest or weed control at 35 g/ha: 60%
Lolium multiflorum; 480 h, solo, WG 70%, 70 gai/ha, 20 DAT
  pest or weed control at 70 g/ha: 65%
Brachiaria decumbens; solo, WG 70%, 62.5 gai/ha
  pest or weed control at 62.5 g/ha: 0%
